| melting point [°C] | SMILES |
| --- | --- |
| 121 to 122 | CCOc1nn(-c2cc(C(F)(F)F)ccn2)cc1CCCOc1ccccc1CC(=O)O [Example 288, [2-(3-{3-ethoxy-1-[4-(trifluoromethyl)-2-pyridinyl]-1H-pyrazol-4-yl}propoxy)phenyl]acetic acid] |
| 98 to 99 | CCOc1nn(-c2cc(C(F)(F)F)ccn2)cc1CCCOc1cccc(OC(C)(C)C(=O)O)c1 [Example 289, 2-[3-(3-{3-ethoxy-1-[4-(trifluoromethyl)-2-pyridinyl]-1H-pyrazol-4-yl}propoxy)phenoxy]-2-methylpropanoic acid] |
| 95 to 96 | CCCc1nn(-c2ccc(C(F)(F)F)cc2)cc1CCCOc1c(CC(=O)O)cccc1OC [Example 297, [3-methoxy-2-(3-{3-propyl-1-[4-(trifluoromethyl)phenyl]-1H-pyrazol-4-yl}propoxy)phenyl]acetic acid] |
| 119 to 120 | CCOc1cc(OCCCc2cn(-c3cc(C(F)(F)F)ccn3)nc2OCC)ccc1CCC(=O)O [Example 298, 3-[2-ethoxy-4-(3-{3-ethoxy-1-[4-(trifluoromethyl)-2-pyridinyl]-1H-pyrazol-4-yl}propoxy)phenyl]propanoic acid] |
| 114 to 115 | CCOc1cccc(CC(=O)O)c1OCCCc1cn(-c2ccc(C(F)(F)F)cn2)nc1OCC [Example 301, [3-ethoxy-2-(3-{3-ethoxy-1-[5-(trifluoromethyl)-2-pyridinyl]-1H-pyrazol-4-yl}propoxy)phenyl]acetic acid] |
| 141 to 142 | CC(C)c1nn(-c2ccc(Cl)cn2)cc1CCCOc1ccccc1CC(=O)O [Example 308, (2-{3-[1-(5-chloro-2-pyridinyl)-3-isopropyl-1H-pyrazol-4-yl]propoxy}phenyl)acetic acid] |
| 140 to 142 | CC(C)c1nn(-c2ccccn2)cc1CCCOc1ccccc1CC(=O)O [Example 309, (2-{3-[3-isopropyl-1-(2-pyridinyl)-1H-pyrazol-4-yl]propoxy}phenyl)acetic acid] |
| 124 to 125 | CC(C)c1nn(-c2ccc(C(F)(F)F)cn2)cc1CCCOc1nn(C)cc1CCC(=O)O [Example 310, 3-[3-(3-{3-isopropyl-1-[5-(trifluoromethyl)-2-pyridinyl]-1H-pyrazol-4-yl}propoxy)-1-methyl-1H-pyrazol-4-yl]propanoic acid] |
| 102 to 104 | COc1cccc(CC(=O)O)c1OCCCc1cn(-c2ccccn2)nc1C(C)C [Example 312, (2-{3-[3-isopropyl-1-(2-pyridinyl)-1H-pyrazol-4-yl]propoxy}-3-methoxyphenyl)acetic acid] |
| 103 to 104 | CCCc1nn(-c2ccc(C(F)(F)F)cn2)cc1CCCOc1nn(C)cc1CCC(=O)O [Example 314, 3-[1-methyl-3-(3-{3-propyl-1-[5-(trifluoromethyl)-2-pyridinyl]-1H-pyrazol-4-yl}propoxy)-1H-pyrazol-4-yl]propanoic acid] |
| 116 to 117 | CC(C)c1nn(-c2ccc(C(F)(F)F)cn2)cc1CCCOc1nn(C2CCCCC2)cc1CC(=O)O [Example 317, [1-cyclohexyl-3-(3-{3-isopropyl-1-[5-(trifluoromethyl)-2-pyridinyl]-1H-pyrazol-4-yl}propoxy)-1H-pyrazol-4-yl]acetic acid] |
| 127 to 128 | CCCc1nn(-c2ccc(C(F)(F)F)cn2)cc1CCCOc1nn(C2CCCCC2)cc1CC(=O)O [Example 320, [1-cyclohexyl-3-(3-{3-propyl-1-[5-(trifluoromethyl)-2-pyridinyl]-1H-pyrazol-4-yl}propoxy)-1H-pyrazol-4-yl]acetic acid] |
| 136 to 138 | CCCc1nn(-c2ccc(C(F)(F)F)cn2)cc1CCCOc1c(CC(=O)O)cnn1C [Example 321, [1-methyl-5-(3-{3-propyl-1-[5-(trifluoromethyl)-2-pyridinyl]-1H-pyrazol-4-yl}propoxy)-1H-pyrazol-4-yl]acetic acid] |
| 112 to 113 | COc1cccc(CCC(=O)O)c1OCCCc1cn(-c2ccc(C(F)(F)F)cn2)nc1C(C)C [Example 323, 3-[2-(3-{3-isopropyl-1-[5-(trifluoromethyl)-2-pyridinyl]-1H-pyrazol-4-yl}propoxy)-3-methoxyphenyl]propanoic acid] |
| 93 to 94 | COc1ccc(CCC(=O)O)cc1OCCCc1cn(-c2ccc(C(F)(F)F)cn2)nc1C(C)C [Example 324, 3-[3-(3-{3-isopropyl-1-[5-(trifluoromethyl)-2-pyridinyl]-1H-pyrazol-4-yl}propoxy)-4-methoxyphenyl]propanoic acid] |
| 137 to 138 | Cn1ncc(CC(=O)O)c1OCCCc1cn(-c2ccc(C(F)(F)F)cn2)nc1C1CCCCC1 [Example 325, [5-(3-{3-cyclohexyl-1-[5-(trifluoromethyl)-2-pyridinyl]-1H-pyrazol-4-yl}propoxy)-1-methyl-1H-pyrazol-4-yl]acetic acid] |
| 125 to 126 | CCCc1nn(-c2ccc(C(F)(F)F)cn2)cc1CCCOc1c(CC(=O)O)cnn1CC [Example 326, [1-ethyl-5-(3-{3-propyl-1-[5-(trifluoromethyl)-2-pyridinyl]-1H-pyrazol-4-yl}propoxy)-1H-pyrazol-4-yl]acetic acid] |
| 123 to 124 | Cc1cnn(CC(=O)O)c1OCCCc1cn(-c2ccc(C(F)(F)F)cn2)nc1C(C)C [Example 327, [5-(3-{3-isopropyl-1-[5-(trifluoromethyl)-2-pyridinyl]-1H-pyrazol-4-yl}propoxy)-4-methyl-1H-pyrazol-1-yl]acetic acid] |
| 111 to 112 | CCc1cnn(CC(=O)O)c1OCCCc1cn(-c2ccc(C(F)(F)F)cn2)nc1C(C)C [Example 328, [4-ethyl-5-(3-{3-isopropyl-1-[5-(trifluoromethyl)-2-pyridinyl]-1H-pyrazol-4-yl}propoxy)-1H-pyrazol-1-yl]acetic acid] |
| 145 to 146 | CCCc1nn(-c2ccc(C(F)(F)F)cn2)cc1CCCOc1c(C)cnn1CC(=O)O [Example 329, [4-methyl-5-(3-{3-propyl-1-[5-(trifluoromethyl)-2-pyridinyl]-1H-pyrazol-4-yl}propoxy)-1H-pyrazol-1-yl]acetic acid] |
| 124 to 125 | CCc1cnn(CC(=O)O)c1OCCCc1cn(-c2ccc(C(F)(F)F)cn2)nc1C(CC)CC [Example 330, [4-ethyl-5-(3-{3-(1-ethylpropyl)-1-[5-(trifluoromethyl)-2-pyridinyl]-1H-pyrazol-4-yl}propoxy)-1H-pyrazol-1-yl]acetic acid] |
| 135 to 136 | CCCc1nn(-c2ccc(C(F)(F)F)cn2)cc1CCCOc1c(CC)cnn1CC(=O)O [Example 331, [4-ethyl-5-(3-{3-propyl-1-[5-(trifluoromethyl)-2-pyridinyl]-1H-pyrazol-4-yl}propoxy)-1H-pyrazol-1-yl]acetic acid] |
| 105 to 106 | COc1cccc(CC(=O)O)c1OCCCc1cn(-c2ncc(Cl)cc2Cl)nc1C(C)C [Example 336, (2-{3-[1-(3,5-dichloro-2-pyridyl)-3-isopropyl-1H-pyrazol-4-yl]propoxy}-3-methoxyphenyl)acetic acid] |

| SMILES | melting point [°C] |
| --- | --- |
| CCCc1nn(-c2ccc(C(F)(F)F)cn2)cc1CCCCOc1c(CC(=O)O)cccc1OC [Example 295, [3-methoxy-2-(4-{3-propyl-1-[5-(trifluoromethyl)-2-pyridinyl]-1H-pyrazol-4-yl}butoxy)phenyl]acetic acid] | 111 to 112 |
